Measurements reported in the CheMixHub viscosity set.
± gives the uncertainty stated by the source.

Test: xn = mol fraction of the nth substance listed

C1CCCCC1 + CCCCCC
Details | viscosity [mPa·s]
298.1 K, 101 kPa, x1 = 0.2 | 0.356 ± 0.026
298.1 K, 101 kPa, x1 = 0.4 | 0.409 ± 0.03
298.1 K, 101 kPa, x1 = 0.5 | 0.442 ± 0.032
298.1 K, 101 kPa, x1 = 0.6 | 0.484 ± 0.035
298.1 K, 101 kPa, x1 = 0.8 | 0.609 ± 0.043
298.15 K, 100 kPa, x1 = 0.201 | 0.34 ± 0.0039
298.15 K, 100 kPa, x1 = 0.4 | 0.4016 ± 0.0046
298.15 K, 100 kPa, x1 = 0.6 | 0.4934 ± 0.0056
298.15 K, 100 kPa, x1 = 0.8 | 0.6328 ± 0.0072
298.15 K, 101 kPa, x2 = 0.0684 | 0.791 ± 0.01
298.15 K, 101 kPa, x2 = 0.1504 | 0.6857 ± 0.0091
298.15 K, 101 kPa, x2 = 0.212 | 0.6386 ± 0.0085
298.15 K, 101 kPa, x2 = 0.2942 | 0.5608 ± 0.0076
298.15 K, 101 kPa, x2 = 0.3691 | 0.5182 ± 0.007
298.15 K, 101 kPa, x2 = 0.4469 | 0.4531 ± 0.0062
298.15 K, 101 kPa, x2 = 0.5365 | 0.4026 ± 0.0056
298.15 K, 101 kPa, x2 = 0.5903 | 0.3809 ± 0.0053
298.15 K, 101 kPa, x2 = 0.6702 | 0.3605 ± 0.0051
298.15 K, 101 kPa, x2 = 0.7634 | 0.3153 ± 0.0045
298.15 K, 101.33 kPa, x1 = 0.0907 | 0.3272 ± 0.0034
298.15 K, 101.33 kPa, x1 = 0.0958 | 0.317 ± 0.003
298.15 K, 101.33 kPa, x1 = 0.1714 | 0.3405 ± 0.0089
298.15 K, 101.33 kPa, x1 = 0.1981 | 0.341 ± 0.003
298.15 K, 101.33 kPa, x1 = 0.274 | 0.3831 ± 0.0038
298.15 K, 101.33 kPa, x1 = 0.2742 | 0.367 ± 0.0096
298.15 K, 101.33 kPa, x1 = 0.2966 | 0.367 ± 0.003
298.15 K, 101.33 kPa, x1 = 0.3645 | 0.4001 ± 0.0039
298.15 K, 101.33 kPa, x1 = 0.3986 | 0.397 ± 0.003
298.15 K, 101.33 kPa, x1 = 0.4469 | 0.4276 ± 0.0041
298.15 K, 101.33 kPa, x1 = 0.4498 | 0.4234 ± 0.011
298.15 K, 101.33 kPa, x1 = 0.4972 | 0.436 ± 0.003
298.15 K, 101.33 kPa, x1 = 0.533 | 0.4643 ± 0.0044
298.15 K, 101.33 kPa, x1 = 0.5873 | 0.4846 ± 0.013
298.15 K, 101.33 kPa, x1 = 0.5972 | 0.484 ± 0.004
298.15 K, 101.33 kPa, x1 = 0.6062 | 0.5023 ± 0.0047
298.15 K, 101.33 kPa, x1 = 0.6783 | 0.5445 ± 0.005
298.15 K, 101.33 kPa, x1 = 0.6988 | 0.544 ± 0.004
298.15 K, 101.33 kPa, x1 = 0.752 | 0.5887 ± 0.015
298.15 K, 101.33 kPa, x1 = 0.7542 | 0.5997 ± 0.0054
298.15 K, 101.33 kPa, x1 = 0.7993 | 0.623 ± 0.004
298.15 K, 101.33 kPa, x1 = 0.8297 | 0.6872 ± 0.006
298.15 K, 101.33 kPa, x1 = 0.8977 | 0.73 ± 0.005
298.15 K, 101.33 kPa, x1 = 0.9016 | 0.7533 ± 0.0065
298.15 K, 101.33 kPa, x1 = 0.9034 | 0.7347 ± 0.019
298.15 K, 101.33 kPa, x1 = 0.9721 | 0.8499 ± 0.0072
303.15 K, 101 kPa, x1 = 0.1086 | 0.2975 ± 0.003
303.15 K, 101 kPa, x1 = 0.2169 | 0.3225 ± 0.0031
303.15 K, 101 kPa, x1 = 0.3006 | 0.3441 ± 0.0031
303.15 K, 101 kPa, x1 = 0.4057 | 0.3765 ± 0.0033
303.15 K, 101 kPa, x1 = 0.5025 | 0.4141 ± 0.0034
303.15 K, 101 kPa, x1 = 0.6021 | 0.4621 ± 0.0036
303.15 K, 101 kPa, x1 = 0.7058 | 0.5242 ± 0.0039
303.15 K, 101 kPa, x1 = 0.7982 | 0.5925 ± 0.0042
303.15 K, 101 kPa, x1 = 0.8984 | 0.6941 ± 0.0046
303.15 K, 101.33 kPa, x1 = 0.0958 | 0.301 ± 0.003
303.15 K, 101.33 kPa, x1 = 0.1981 | 0.324 ± 0.003
303.15 K, 101.33 kPa, x1 = 0.2966 | 0.349 ± 0.003
303.15 K, 101.33 kPa, x1 = 0.3986 | 0.378 ± 0.003
303.15 K, 101.33 kPa, x1 = 0.4972 | 0.412 ± 0.003
303.15 K, 101.33 kPa, x1 = 0.5972 | 0.454 ± 0.004
303.15 K, 101.33 kPa, x1 = 0.6988 | 0.511 ± 0.004
303.15 K, 101.33 kPa, x1 = 0.7993 | 0.58 ± 0.004
303.15 K, 101.33 kPa, x1 = 0.8977 | 0.672 ± 0.005
308.15 K, 101.33 kPa, x1 = 0.0958 | 0.288 ± 0.003
308.15 K, 101.33 kPa, x1 = 0.1981 | 0.307 ± 0.003
308.15 K, 101.33 kPa, x1 = 0.2966 | 0.33 ± 0.003
308.15 K, 101.33 kPa, x1 = 0.3986 | 0.357 ± 0.003
308.15 K, 101.33 kPa, x1 = 0.4972 | 0.389 ± 0.003
308.15 K, 101.33 kPa, x1 = 0.5972 | 0.428 ± 0.003
308.15 K, 101.33 kPa, x1 = 0.6988 | 0.479 ± 0.004
308.15 K, 101.33 kPa, x1 = 0.7993 | 0.543 ± 0.004
308.15 K, 101.33 kPa, x1 = 0.8977 | 0.623 ± 0.004
323.15 K, 100 kPa, x1 = 0.201 | 0.266 ± 0.0031
323.15 K, 100 kPa, x1 = 0.4 | 0.309 ± 0.0035
323.15 K, 100 kPa, x1 = 0.6 | 0.3703 ± 0.0042
323.15 K, 100 kPa, x1 = 0.8 | 0.4573 ± 0.0052

CCC(C)=O + CCCCCC
298 K, 101.33 kPa
Details | viscosity [mPa·s]
x1 = 0.055 | 0.3018 ± 0.0043
x1 = 0.2337 | 0.3032 ± 0.0044
x1 = 0.2985 | 0.3054 ± 0.0044
x1 = 0.4168 | 0.3122 ± 0.0045
x1 = 0.5063 | 0.3211 ± 0.0046
x1 = 0.6043 | 0.3277 ± 0.0047
x1 = 0.6943 | 0.3371 ± 0.0048
x1 = 0.8004 | 0.3496 ± 0.0049
x1 = 0.9053 | 0.3647 ± 0.0051
